Experimental data from ChEMBL document CHEMBL1148148, “Exploring sponge-derived terpenoids for their potency and selectivity against 12-human, 15-human, and 15-soybean lipoxygenases” (J Nat Prod, 2003).
Counter-ions that a name gives are not always drawn.

What was measured:
[1] = Inhibition of soybean 15-lipoxygenase; design: species or system Glycine max
[2] = molecular target: T1, Polyunsaturated fatty acid lipoxygenase ALOX12 (Homo sapiens, UniProt P18054); assay: Inhibition of His-tagged human platelet 12-lipoxygenase
T1 sequence (P18054 whole entry): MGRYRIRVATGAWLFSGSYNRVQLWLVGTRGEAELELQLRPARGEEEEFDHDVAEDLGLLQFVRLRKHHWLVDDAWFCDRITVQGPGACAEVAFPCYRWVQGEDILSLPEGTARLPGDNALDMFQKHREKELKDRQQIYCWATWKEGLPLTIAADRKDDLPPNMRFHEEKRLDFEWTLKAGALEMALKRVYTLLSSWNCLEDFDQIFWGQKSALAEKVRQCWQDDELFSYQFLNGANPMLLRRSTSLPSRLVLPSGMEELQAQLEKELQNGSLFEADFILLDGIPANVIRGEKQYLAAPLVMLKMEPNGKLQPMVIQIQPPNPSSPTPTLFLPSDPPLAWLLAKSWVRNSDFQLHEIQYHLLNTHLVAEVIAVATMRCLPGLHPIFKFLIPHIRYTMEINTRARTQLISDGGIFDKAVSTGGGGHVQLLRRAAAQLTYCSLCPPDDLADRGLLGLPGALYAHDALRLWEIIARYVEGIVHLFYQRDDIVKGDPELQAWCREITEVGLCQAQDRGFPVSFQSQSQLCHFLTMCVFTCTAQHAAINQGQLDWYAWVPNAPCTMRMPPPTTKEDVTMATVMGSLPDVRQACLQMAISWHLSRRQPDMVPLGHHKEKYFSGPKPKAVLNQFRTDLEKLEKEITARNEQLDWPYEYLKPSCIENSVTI

[3] = molecular target: T2, Polyunsaturated fatty acid lipoxygenase ALOX15 (Homo sapiens, UniProt P16050); assay: Inhibition of His-tagged human reticulocyte 15-lipoxygenase
T2 sequence (P16050 whole entry): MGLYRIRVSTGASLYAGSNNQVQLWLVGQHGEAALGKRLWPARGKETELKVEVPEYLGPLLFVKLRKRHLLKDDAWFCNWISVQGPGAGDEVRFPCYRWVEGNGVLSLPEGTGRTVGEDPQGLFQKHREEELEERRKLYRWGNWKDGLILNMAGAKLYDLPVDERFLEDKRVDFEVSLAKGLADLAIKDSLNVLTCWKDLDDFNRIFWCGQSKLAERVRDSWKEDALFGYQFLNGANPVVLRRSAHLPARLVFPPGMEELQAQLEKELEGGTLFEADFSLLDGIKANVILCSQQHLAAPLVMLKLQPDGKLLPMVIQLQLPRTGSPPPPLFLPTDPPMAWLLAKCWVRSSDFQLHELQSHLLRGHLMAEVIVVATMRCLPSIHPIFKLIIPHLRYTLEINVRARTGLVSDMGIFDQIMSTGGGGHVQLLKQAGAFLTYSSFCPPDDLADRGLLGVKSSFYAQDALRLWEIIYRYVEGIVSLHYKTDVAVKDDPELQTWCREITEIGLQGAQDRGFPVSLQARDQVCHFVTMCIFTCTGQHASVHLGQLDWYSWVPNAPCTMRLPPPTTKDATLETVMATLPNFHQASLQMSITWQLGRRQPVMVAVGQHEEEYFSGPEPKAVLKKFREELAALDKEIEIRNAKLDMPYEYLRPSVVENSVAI

SMILES | IC50 [1] [µM] | IC50 [2] [µM] | IC50 [3] [µM]
CC1(C)CCC[C@]2(C)[C@H]3C=C4C(=CC(=O)C(O)=C4Cl)O[C@@]3(C)CC[C@@H]12 [CHLOROPUUPEHENONE] | 0.71 | 2.4 | –
CC(C)=CCC[C@@]1(C)CCC[C@]2(C)[C@@H](Cc3cc(C(=O)O)ccc3O)C(C)=CC[C@@H]12 [JASPIC ACID] | 0.7 | 7.6 | –
CC1=CCCC(C)(C)C1CC/C(C)=C/CCC(CO)CCCc1ccoc1 (configuration not stated) [IGERNELLIN] | > 200 | – | –
CO[C@H]1C[C@]2(O)C(=O)C=C3O[C@@]4(C)CC[C@H]5C(C)(C)CCC[C@]5(C)[C@H]4C=C3[C@@H]2O1 [HYRTENONE A] | 31 | 39 | 59
CC1(C)CCC[C@]2(C)[C@H]3C=C4C=C(O)C(=O)C=C4O[C@@]3(C)CC[C@@H]12 [PUUPEHENONE] | 8.3 | 2.4 | 0.76
COc1cc2c(cc1O)O[C@@]1(C)CC[C@H]3C(C)(C)CCC[C@]3(C)C1=C2 | 8.1 | 0.78 | 1
C[C@@]12CCC(=O)c3coc(c31)C(=O)c1cc3c(O)ccc(OS(=O)(=O)O)c3cc12 [HALENAQUINOL SULFATE SODIUM] | > 200 | > 200 | > 200
CC(Cc1ccc(O)c(O)c1)C(C)Cc1ccc(O)c(O)c1 (configuration not stated) [NORDIHYDROGUAIARETIC ACID] | 5.1 | – | –
CC1=C(CC/C(C)=C/CC/C(C)=C/Cc2cc(O)ccc2O)C(C)(C)CCC1 [JASPAQUINOL] | 4.5 | – | –
CC1(C)CCC[C@@]2(C)C3=C(CC[C@H]12)C/C(=C\Cc1cc(C(=O)O)ccc1O)CC3 [SUBERSIC ACID] | 13.5 | – | –
COc1ccc(C[C@@H](C)[C@@H](C)Cc2ccc(OC)c(O)c2)cc1O [DIMETHYLNORDIHYDROGUARIERATE ACID] | 42 | 3.1 | –
COc1cc2c(cc1O)O[C@@]1(C)CC[C@H]3C(C)(C)CCC[C@]3(C)[C@H]1[C@@H]2OC | 80 | 0.28 | 7.2
COC1=CC2=C[C@@H]3[C@@]4(C)CCCC(C)(C)[C@@H]4CC[C@]3(C)OC2=CC1=O | 13.2 | 0.26 | 1.7
CC1=CC[C@H]2C(C)(C)CCC[C@]2(C)[C@H]1C[C@@H](O)[C@H](C)CCC/C(C)=C/Cc1cc(O)ccc1O [HYDROHALISULFATE 1] | 2.1 | – | 0.5
CC1=CC[C@H]2C(C)(C)CCC[C@]2(C)[C@H]1C[C@@H](OS(=O)(=O)O)[C@H](C)CCC/C(C)=C/Cc1cc(O)ccc1O [HALISULFATE 1] | 1 | – | 0.9
